Results published in patent US9234025B2, “Extracellular allosteric inhibitor binding domain from a tyrosine kinase receptor” (SANOFI, priority 2009, dated 2016).

What was measured:
FGFR2^∂23-Y328D = FGFR2^∂23-Y328D (Homo sapiens, UniProt P21802, Y328D); test: FGF2-induced ERK1/2 phosphorylation in HEK293 cells, FGFR2 Y328D; assay type: cell-based; parameters: stably transfected HEK293 cells with full length FGFR2-WT or -Y328D; expressed in transfected cells; host or cells: HEK293; conditions: stable HEK293 FGFR2 Y328D cells; FGF2 0.5 ng/ml 5 min; average±sem, three experiments; read-out: IC50 value, inhibition of FGF2 induced ERK1/2 phosphorylation
Procedure: HEK293 cells were either transiently of stably transfected (using FuGENE 6, Roche) with hFGFR2IIIca or hFGFR2IIIca-Y328D cloned in pcDNA3 (Invitrogen). Stably transfected cells were grown in G418 (400 μg/ml) containing medium. Before stimulation, the cells were starved overnight in DMEM (0% serum), and pre-incubated with […] at the required concentration. The cells were subsequently stimulated with FGF2 (concentration between 0.5-10 ng/ml) for 5 min at 37° C. with or without SSR or SU5402 at 1 μM. After washing with ice-cold phosphate-buffered saline containing phosphatase inhibitors (Roche), cells were lysed in RIPA buffer (Tris 30 mM HCl pH 7.5, 150 mM NaCl, 1 mM EDTA, 1% triton-X, 0.5% w/v deoxycholate, containing phophatase and protease inhibitors as described by the manufacturer (Roche)). Cell lysates were centrifuged at 12,000 g for 10 min, and the supernatants were collected. Proteins were separated on Novex polyacrylamide gels (Invitrogen, Carlsbad, Calif.) and subsequently transferred onto Hybond ECL nitrocellulose membranes (Amersham Pharmacia). Following incubation with 5% non-fat milk powder in PBS, the membranes were incubated overnight at 4° C. with the following antibodies: phospho-ERK1/2 (CST:9101), phospho-FRS2 (CST:3861), phospho-PLCγ (CST:2821) and FGFR2 (F0300, Sigma).

B9-FGFR3TD cell line = test: B9 myeloma cell proliferation, FGFR3TD (K650E); assay type: cell-based; conditions: constitutively activated FGFR3 K650E
Procedure: Cell proliferation was analysed on exponentially growing cells that were starved for 16 hours in IMDM (Invitrogen, 31980048), 0.2% FBS, 2 mM glutamine containing medium and seeded at 4,000 cells/well in 96-well microplates. After exposure to mitogens and/or SSR for 72 hours, cell proliferation was assessed with the use of the CellTiter 96 AQueous One Solution Cell Proliferation Assay (Promega, Madison, Wis., USA) according to manufacturer's instructions.
For studying SSR effect on FGFR3, the proliferation of B9-myeloma cells, expressing either FGFR3WT or FGFR3TD (a constitutively activated FGFR3 variant induced by the K650E mutation, even in the absence of any ligand; Truedel et al; blood 2006), was assayed by stimulation with FGF1 (25 ng/ml).

FGF1 = biological target: T1, FGF1 (Homo sapiens, UniProt P05230); test: ITC or STD-NMR, FGF1; assay type: binding
T1 construct: FGF1 (amino acids: 16-155); made in house
Procedure: The extracellular domain (ECD; amino acids: 39-358) of the human FGFR1 gene (P11362) was PCR amplified and cloned into E. coli vector pETTEV (with a N-terminal His-tag followed by a TEV protease cleavage site), using NdeI and BamHI restriction sites. For protein production, the resulting plasmid (pET FGFR1 D1D2D3) was transformed into E. coli BL21(DE3) (Novagene). Cells were grown at 37° C. until the OD600 reached 0.6 and recombinant protein production was induced by adding 1 mM IPTG (isopropyl-b-D-thiogalactopyranoside). After 4 hours induction, cells were harvested and stored at −80° C. until usage. The cell pellet (1 L culture) was thawed and resuspended in 50 ml buffer 1 (20 mM Tris/HCl, pH 7.5, 200 mM NaCl) containing lysozyme (2 mg), and 40 U benzonase (Merck). […] Complex formation was analyzed by size exclusion chromatography and subsequent analysis on SDS-PAGE.
All STD- and 1D-NMR experiments were carried out on a BRUKER three-channel DRX600 and on a BRUKER four-channel DRX800 spectrometer at the standard temperature of 298 K and were referenced to the internal standard 3-Trimethyl-2,2,3,3-tetradeuteropropionate-sodium salt (TSP). […] For protein ligand 1D STD NMR measurements spectra were recorded with 1 mM ligand SSR128129E (100 mM DMSO stock solution) and […] protein with weak 2s RF irradiation on separated protein methyl resonances. […]

T1 sequence (P05230 16-155, species assumed): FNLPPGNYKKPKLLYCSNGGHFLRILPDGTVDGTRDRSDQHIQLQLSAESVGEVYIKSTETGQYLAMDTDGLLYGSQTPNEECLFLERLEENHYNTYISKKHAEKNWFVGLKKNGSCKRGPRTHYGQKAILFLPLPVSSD
FGFR2^∂23-Y328D, sequence (P21802 22-821 Y328D): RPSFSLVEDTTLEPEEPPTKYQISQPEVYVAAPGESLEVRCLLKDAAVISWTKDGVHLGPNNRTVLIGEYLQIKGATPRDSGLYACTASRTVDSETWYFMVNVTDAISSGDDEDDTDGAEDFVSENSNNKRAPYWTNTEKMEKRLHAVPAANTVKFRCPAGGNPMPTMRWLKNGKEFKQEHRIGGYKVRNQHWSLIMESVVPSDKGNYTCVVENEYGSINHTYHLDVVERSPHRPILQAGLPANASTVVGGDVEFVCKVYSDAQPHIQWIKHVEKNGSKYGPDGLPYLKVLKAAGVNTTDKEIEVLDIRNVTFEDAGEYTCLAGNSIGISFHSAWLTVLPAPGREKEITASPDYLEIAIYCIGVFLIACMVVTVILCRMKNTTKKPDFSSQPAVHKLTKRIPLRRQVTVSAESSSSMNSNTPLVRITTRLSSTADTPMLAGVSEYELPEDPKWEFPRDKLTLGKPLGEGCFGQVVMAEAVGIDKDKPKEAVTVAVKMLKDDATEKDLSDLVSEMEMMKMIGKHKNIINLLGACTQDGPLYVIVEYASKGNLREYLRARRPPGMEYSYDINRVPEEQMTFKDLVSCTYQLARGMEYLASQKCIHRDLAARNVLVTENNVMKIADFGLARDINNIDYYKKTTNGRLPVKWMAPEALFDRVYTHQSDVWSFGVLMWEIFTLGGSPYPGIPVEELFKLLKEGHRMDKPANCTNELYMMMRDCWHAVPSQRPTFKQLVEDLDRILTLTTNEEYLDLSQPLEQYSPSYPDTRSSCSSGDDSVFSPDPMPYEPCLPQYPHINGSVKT

Structure (SMILES): COc1c(C)c(C(=O)c2ccc(N)c(C(=O)[O-])c2)n2ccccc12.[Na+] [SSR]
- IC50 (FGFR2^∂23-Y328D): 0.121 ± 0.03 µM
- proliferation of B9-FGFR3TD cells (B9-FGFR3TD cell line): insensitve
- binding to FGF1 (FGF1): failed to bind
